Data taken from ChEMBL document CHEMBL1201862, “PubChem BioAssay data set” (2004).
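A five-concentration, 48-hour dose response in 96-well plates underlies each endpoint, interpolated linearly between surrounding concentrations. GI50 = concentration required for 50% inhibition of growth.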 The source made the active and inactive calls. Cut-off read from the data, not from the text of the source: active = GI50 up to about 1.1 µM and inactive = higher.

Legend:
Test in all cases: DTP human tumour cell line panel, 48 h
[1] = tested on: 786-0
[2] = tested on: A498
[3] = tested on: A549
[4] = tested on: ACHN
[5] = tested on: BT-549
[6] = tested on: DU-145
[7] = tested on: EKVX
[8] = tested on: HCC 2998
[9] = tested on: HCT-15
[10] = tested on: HOP-62
[11] = tested on: HOP-92
[12] = tested on: IGROV-1
[13] = tested on: K562
[14] = tested on: MDA-MB-435
[15] = tested on: MOLT-4
[16] = tested on: NCI-H460
[17] = tested on: NCI-H522
[18] = tested on: NCI/ADR-RES
[19] = tested on: OVCAR-4
[20] = tested on: OVCAR-5
[21] = tested on: OVCAR-8
[22] = tested on: RPMI-8226
[23] = tested on: SF-268
[24] = tested on: SF-295
[25] = tested on: SF-539
[26] = tested on: SK-OV-3
[27] = tested on: SN12C
[28] = tested on: SNB-19
[29] = tested on: T47D
[30] = tested on: U-251
[31] = tested on: UACC-257
[32] = tested on: UO-31
[33] = tested on: CAKI-1
[34] = tested on: CCRF-CEM
[35] = tested on: COLO 205
[36] = tested on: HCT-116
[37] = tested on: HL-60
[38] = tested on: HT-29
[39] = tested on: Hs-578T
[40] = tested on: KM12
[41] = tested on: LOX IMVI
[42] = tested on: M14
[43] = tested on: MCF7
[44] = tested on: MDA-MB-231
[45] = tested on: MDA-N
[46] = tested on: Malme-3M
[47] = tested on: NCI-H226
[48] = tested on: NCI-H23
[49] = tested on: OVCAR-3
[50] = tested on: PC-3
[51] = tested on: RXF 393
[52] = tested on: SK-MEL-28
[53] = tested on: SK-MEL-2
[54] = tested on: SK-MEL-5
[55] = tested on: SNB-75
[56] = tested on: SR
[57] = tested on: SW-620
[58] = tested on: TK-10
[59] = tested on: UACC-62

SMILES: CSc1ccc2c(cc1=O)[C@@H](NC(=O)c1ccc(N)cc1)CCc1cc(O)c(O)c(O)c1-2
- GI50 [1]: 16.4 µM (inactive)
- GI50 [2]: 46.2 µM (inactive)
- GI50 [3]: 23.6 µM (inactive)
- GI50 [4]: 21.2 µM (inactive)
- GI50 [5]: 16 µM (inactive)
- GI50 [6]: 49.1 µM (inactive)
- GI50 [7]: 30.1 µM (inactive)
- GI50 [8]: 14.5 µM (inactive)
- GI50 [9]: 17.9 µM
- GI50 [10]: 15.1 µM (inactive)
- GI50 [11]: 41.4 µM (inactive)
- GI50 [12]: 25 µM (inactive)
- GI50 [13]: 9.66 µM (inactive)
- GI50 [14]: 7.85 µM (inactive)
- GI50 [15]: 22.6 µM (inactive)
- GI50 [16]: 12 µM (inactive)
- GI50 [17]: 7.67 µM (inactive)
- GI50 [18]: 28.5 µM (inactive)
- GI50 [19]: 22 µM (inactive)
- GI50 [20]: 23.4 µM (inactive)
- GI50 [21]: 22 µM (inactive)
- GI50 [22]: 22.3 µM (inactive)
- GI50 [23]: 13.6 µM (inactive)
- GI50 [24]: 15.7 µM (inactive)
- GI50 [25]: 3.85 µM (inactive)
- GI50 [26]: > 100 µM (inactive)
- GI50 [27]: 27.9 µM (inactive)
- GI50 [28]: 25.1 µM (inactive)
- GI50 [29]: 66.1 µM (inactive)
- GI50 [30]: 25.4 µM (inactive)
- GI50 [31]: 18.3 µM (inactive)
- GI50 [32]: 26 µM (inactive)

SMILES: CC(C)(Br)C(=O)N1CCN(C(c2ccccc2)c2ccccc2)CC1
- GI50 [1]: > 100 µM (inactive)
- GI50 [2]: > 100 µM (inactive)
- GI50 [3]: > 100 µM (inactive)
- GI50 [4]: > 100 µM (inactive)
- GI50 [5]: > 100 µM (inactive)
- GI50 [33]: 84.1 µM (inactive)
- GI50 [34]: 49.2 µM (inactive)
- GI50 [35]: > 100 µM (inactive)
- GI50 [6]: 50.6 µM (inactive)
- GI50 [7]: 40.6 µM (inactive)
- GI50 [8]: > 100 µM (inactive)
- GI50 [36]: 32.2 µM (inactive)
- GI50 [9]: 64.9 µM
- GI50 [37]: 21.5 µM (inactive)
- GI50 [10]: 43.5 µM (inactive)
- GI50 [11]: 68.4 µM (inactive)
- GI50 [38]: 39.5 µM (inactive)
- GI50 [39]: 22.6 µM (inactive)
- GI50 [12]: > 100 µM (inactive)
- GI50 [13]: > 100 µM (inactive)
- GI50 [40]: 16.2 µM (inactive)
- GI50 [41]: > 100 µM (inactive)
- GI50 [42]: > 100 µM (inactive)
- GI50 [43]: 24.3 µM (inactive)
- GI50 [44]: > 100 µM (inactive)
- GI50 [14]: > 100 µM (inactive)
- GI50 [45]: > 100 µM (inactive)
- GI50 [15]: 30.1 µM (inactive)
- GI50 [46]: > 100 µM (inactive)
- GI50 [47]: 95.1 µM (inactive)
- GI50 [48]: > 100 µM (inactive)
- GI50 [16]: > 100 µM (inactive)
- GI50 [17]: 85.7 µM (inactive)
- GI50 [18]: > 100 µM (inactive)
- GI50 [49]: 19.8 µM (inactive)
- GI50 [19]: > 100 µM (inactive)
- GI50 [20]: > 100 µM (inactive)
- GI50 [21]: > 100 µM (inactive)
- GI50 [50]: 50.1 µM (inactive)
- GI50 [51]: 31.3 µM (inactive)
- GI50 [23]: 64 µM (inactive)
- GI50 [24]: > 100 µM (inactive)
- GI50 [25]: > 100 µM (inactive)
- GI50 [52]: > 100 µM (inactive)
- GI50 [53]: > 100 µM (inactive)
- GI50 [54]: 61.4 µM (inactive)
- GI50 [26]: > 100 µM (inactive)
- GI50 [27]: 84.9 µM (inactive)
- GI50 [28]: > 100 µM (inactive)
- GI50 [55]: > 100 µM (inactive)
- GI50 [56]: 66.2 µM (inactive)
- GI50 [57]: > 100 µM (inactive)
- GI50 [58]: > 100 µM (inactive)
- GI50 [30]: > 100 µM (inactive)
- GI50 [31]: 41.9 µM (inactive)
- GI50 [59]: > 100 µM (inactive)
- GI50 [32]: 68.7 µM (inactive)
